Patent US8143288B2, “Inhibitors of HCV replication” (priority 2005, dated 2012)
Read-outs that look alike come from different tables or passages of the source.

Tested on: HCV 1b-377-neo replicon cells
Assay: HCV replicon FRET assay
Format: cell-based
Conditions: Hepatitis C virus, read-out: Activity (EC50)

Row | SMILES | EC50 (HCV replicon) [nM] | EC50 [nM]
1 | Cn1cccc1C(=O)N1CCC[C@H]1C(=O)Nc1ccc(/C=C/c2ccc(NC(=O)[C@@H]3CCCN3C(=O)c3cccn3C)cc2)cc1 [Example 121] | 0.1 to 90 | 
2 | CCc1ccccc1C(=O)N1CCC[C@@H]1C(=O)Nc1ccc(/C=C/c2ccc(NC(=O)[C@@H]3CCCN3C(=O)c3ccccc3CC)cc2)cc1 [Example 124] | 1000 to 10000 | 
3 | Cc1ccccc1C(=O)N1CCC[C@H]1C(=O)Nc1ccc(/C=C/c2ccc(NC(=O)[C@@H]3CCCN3C(=O)c3ccccc3C)cc2)cc1 [Example 125] | 100 to 1000 | 
4 | [N-]=[N+]=Nc1cccc(CC(=O)N2CCC[C@H]2C(=O)Nc2ccc(/C=C/c3ccc(NC(=O)[C@@H]4CCCN4C(=O)Cc4ccccc4)cc3)cc2)c1 [Example 126] | 0.1 to 90 | 
5 | [N-]=[N+]=Nc1cccc(CC(=O)N2CCC[C@H]2C(=O)Nc2ccc(/C=C/c3ccc(NC(=O)[C@@H]4CCCN4C(=O)CCCC[C@@H]4SC[C@@H]5NC(=O)N[C@@H]54)cc3)cc2)c1 [Example 127] | 100 to 1000 | 
6 | [N-]=[N+]=Nc1cccc(CC(=O)N2CCC[C@H]2C(=O)Nc2ccc(/C=C/c3ccc(NC(=O)[C@@H]4CCCN4C(=O)Cc4cccc(N=[N+]=[N-])c4)cc3)cc2)c1 [Example 128] | 0.1 to 90 | 
7 | CC(=O)N1C[C@H](OC(C)(C)C)C[C@H]1C(=O)Nc1ccc(/C=C/c2ccc(NC(=O)[C@@H]3C[C@@H](OC(C)(C)C)CN3C(=O)[C@H]3CCCO3)cc2)cc1 [Example 129] | 100 to 1000 | 
8 | CC(C)(C)O[C@@H]1C[C@@H](C(=O)Nc2ccc(/C=C/c3ccc(NC(=O)[C@@H]4C[C@@H](OC(C)(C)C)CN4C(=O)[C@H]4CCCO4)cc3)cc2)N(C(=O)[C@H]2CCCO2)C1 [Example 130] | 0.1 to 90 | 
9 | CC(C)(C)O[C@@H]1C[C@@H](C(=O)Nc2ccc(/C=C/c3ccc(NC(=O)[C@@H]4C[C@@H](OC(C)(C)C)CN4C(=O)Cc4cccnc4)cc3)cc2)N(C(=O)Cc2cccnc2)C1 [Example 131] | 0.1 to 90 | 
10 | CC(=O)N1C[C@H](OC(C)(C)C)C[C@H]1C(=O)Nc1ccc(/C=C/c2ccc(NC(=O)[C@@H]3C[C@@H](OC(C)(C)C)CN3C(=O)Cc3cccnc3)cc2)cc1 [Example 132] | 100 to 1000 | 
11 | COc1ccccc1C(=O)N1CCC[C@H]1C(=O)Nc1ccc(/C=C/c2ccc(NC(=O)[C@@H]3CCCN3C(=O)c3ccccc3OC)cc2)cc1 [Example 133] | 1000 to 10000 | 
12 | CCCOc1ccccc1C(=O)N1CCC[C@H]1C(=O)Nc1ccc(/C=C/c2ccc(NC(=O)[C@@H]3CCCN3C(=O)c3ccccc3OCCC)cc2)cc1 [Example 134] | 1000 to 10000 | 
13 | CC(=O)c1ccccc1C(=O)N1CCC[C@H]1C(=O)Nc1ccc(/C=C/c2ccc(NC(=O)[C@@H]3CCCN3C(=O)c3ccccc3C(C)=O)cc2)cc1 [Example 135] | 1000 to 10000 | 
14 | CCC(=O)c1ccccc1C(=O)N1CCC[C@H]1C(=O)Nc1ccc(/C=C/c2ccc(NC(=O)[C@@H]3CCCN3C(=O)c3ccccc3C(=O)CC)cc2)cc1 [Example 136] | 1000 to 10000 | 
15 | O=C(Nc1ccc(/C=C/c2ccc(NC(=O)[C@@H]3CCCN3C(=O)c3ccccc3-n3cccc3)cc2)cc1)[C@@H]1CCCN1C(=O)c1ccccc1-n1cccc1 [Example 137] | 1000 to 10000 | 
16 | COc1ccc(Cl)cc1C(=O)N1CCC[C@H]1C(=O)Nc1ccc(/C=C/c2ccc(NC(=O)[C@@H]3CCCN3C(=O)c3cc(Cl)ccc3OC)cc2)cc1 [Example 138] | 1000 to 10000 | 
17 | COc1ccc(C)cc1C(=O)N1CCC[C@H]1C(=O)Nc1ccc(/C=C/c2ccc(NC(=O)[C@@H]3CCCN3C(=O)c3cc(C)ccc3OC)cc2)cc1 [Example 139] | 100 to 1000 | 
18 | CNc1ccccc1C(=O)N1CCC[C@H]1C(=O)Nc1ccc(/C=C/c2ccc(NC(=O)[C@@H]3CCCN3C(=O)c3ccccc3NC)cc2)cc1 [Example 140] | 100 to 1000 | 
19 | O=C(Nc1ccc(/C=C/c2ccc(NC(=O)[C@@H]3CCCN3C(=O)c3ccccc3NCc3ccccc3)cc2)cc1)[C@@H]1CCCN1C(=O)c1ccccc1NCc1ccccc1 [Example 141] | 1000 to 10000 | 
20 | COc1ccccc1C(=O)N1CCC[C@H]1C(=O)Nc1ccc(/C=C/c2ccc(NC(=O)[C@@H]3CCCN3C(=O)Cc3cccnc3)cc2)cc1 [Example 142] | 100 to 1000 | 
21 | CCc1ccccc1C(=O)N1CCC[C@H]1C(=O)Nc1ccc(/C=C/c2ccc(NC(=O)[C@@H]3CCCN3C(=O)Cc3cccnc3)cc2)cc1 [Example 143] | 100 to 1000 | 
22 | CN(C)c1ccccc1C(=O)N1CCC[C@H]1C(=O)Nc1ccc(/C=C/c2ccc(NC(=O)[C@@H]3CCCN3C(=O)c3ccccc3N(C)C)cc2)cc1 [Example 144] | 1000 to 10000 | 
23 | COc1ccc(OC)c(C(=O)N2CCC[C@H]2C(=O)Nc2ccc(/C=C/c3ccc(NC(=O)[C@@H]4CCCN4C(=O)c4cc(OC)ccc4OC)cc3)cc2)c1 [Example 145] | 100 to 1000 | 
24 | COc1cccc(C(=O)N2CCC[C@H]2C(=O)Nc2ccc(/C=C/c3ccc(NC(=O)[C@@H]4CCCN4C(=O)c4cccc(OC)c4OC)cc3)cc2)c1OC [Example 146] | 1000 to 10000 | 
25 | O=C(Nc1ccc(/C=C/c2ccc(NC(=O)[C@@H]3CCCN3C(=O)c3ccccc3Oc3ccccc3)cc2)cc1)[C@@H]1CCCN1C(=O)c1ccccc1Oc1ccccc1 [Example 147] | 100 to 1000 | 
26 | O=C(Nc1ccc(/C=C/c2ccc(NC(=O)[C@@H]3CCCN3C(=O)c3ccccc3OCc3ccccc3)cc2)cc1)[C@@H]1CCCN1C(=O)c1ccccc1OCc1ccccc1 [Example 148] | 1000 to 10000 | 

Row | SMILES | EC50 (HCV replicon) [nM] | EC50 [nM]
27 | O=C(Nc1ccc(/C=C/c2ccc(NC(=O)[C@@H]3CCCN3C(=O)c3cccc4cc[nH]c34)cc2)cc1)[C@@H]1CCCN1C(=O)c1cccc2cc[nH]c12 [Example 149] | 100 to 1000 | 
28 | CC(C)(C)OC(=O)Nc1ccccc1C(=O)N1CCC[C@H]1C(=O)Nc1ccc(/C=C/c2ccc(NC(=O)[C@@H]3CCCN3C(=O)c3ccccc3NC(=O)OC(C)(C)C)cc2)cc1 [Example 150] |  | 1000 to 10000
29 | O=C(Nc1ccc(/C=C/c2ccc(NC(=O)[C@@H]3CCCN3C(=O)c3ccccc3NCc3ccccc3)cc2)cc1)[C@@H]1CCCN1C(=O)Cc1cccnc1 [Example 151] | 100 to 1000 | 
30 | O=C(Nc1ccc(/C=C/c2ccc(NC(=O)[C@@H]3CCCN3C(=O)c3ccccc3NCc3ccccc3)cc2)cc1)[C@@H]1CCCN1C(=O)CC1CC1 [Example 152] | 100 to 1000 | 
31 | CC(=O)N1CCC[C@H]1C(=O)Nc1ccc(/C=C/c2ccc(NC(=O)[C@@H]3CCCN3C(=O)c3ccccc3NCc3ccccc3)cc2)cc1 [Example 153] | 1000 to 10000 | 
32 | O=C(Nc1ccc(/C=C/c2ccc(NC(=O)[C@@H]3CCCN3C(=O)C3CC(=O)N(Cc4cccs4)C3)cc2)cc1)[C@@H]1CCCN1C(=O)C1CC(=O)N(Cc2cccs2)C1 (stereo partly drawn) [Example 154] | 1000 to 10000 | 
33 | CCn1nc(C)cc1C(=O)N1CCC[C@H]1C(=O)Nc1ccc(/C=C/c2ccc(NC(=O)[C@@H]3CCCN3C(=O)c3cc(C)nn3CC)cc2)cc1 [Example 155] | 0.1 to 90 | 
34 | O=C(Nc1ccc(/C=C/c2ccc(NC(=O)[C@@H]3CCCN3C(=O)C3CC(=O)N(CCc4cccs4)C3)cc2)cc1)[C@@H]1CCCN1C(=O)C1CC(=O)N(CCc2cccs2)C1 (stereo partly drawn) [Example 156] | 1000 to 10000 | 
35 | CN1CCC[C@H]1C(=O)N1CCC[C@H]1C(=O)Nc1ccc(/C=C/c2ccc(NC(=O)[C@@H]3CCCN3C(=O)[C@@H]3CCCN3C)cc2)cc1 [Example 157] | 1000 to 10000 | 
36 | CCOc1ccccc1C(=O)N1CCC[C@H]1C(=O)Nc1ccc(/C=C/c2ccc(NC(=O)[C@@H]3CCCN3C(=O)c3ccccc3OCC)cc2)cc1 [Example 158] | 1000 to 10000 | 
37 | CCCOc1cccnc1C(=O)N1CCC[C@H]1C(=O)Nc1ccc(/C=C/c2ccc(NC(=O)[C@@H]3CCCN3C(=O)c3ncccc3OCCC)cc2)cc1 [Example 159] | 1000 to 10000 | 
38 | CCOc1ncccc1C(=O)N1CCC[C@H]1C(=O)Nc1ccc(/C=C/c2ccc(NC(=O)[C@@H]3CCCN3C(=O)c3cccnc3OCC)cc2)cc1 [Example 160] | 1000 to 10000 | 
39 | O=C(Nc1ccc(/C=C/c2ccc(NC(=O)[C@@H]3CCCN3C(=O)c3ccccc3NCc3ccccn3)cc2)cc1)[C@@H]1CCCN1C(=O)c1ccccc1NCc1ccccn1 [Example 161] | 1000 to 10000 | 
40 | CN(Cc1ccccc1)c1ccccc1C(=O)N1CCC[C@H]1C(=O)Nc1ccc(/C=C/c2ccc(NC(=O)[C@@H]3CCCN3C(=O)c3ccccc3N(C)Cc3ccccc3)cc2)cc1 [Example 162] | 1000 to 10000 | 
41 | O=C(Nc1ccc(/C=C/c2ccc(NC(=O)[C@@H]3CCCN3C(=O)c3cccc4ccccc34)cc2)cc1)[C@@H]1CCCN1C(=O)c1cccc2ccccc12 [Example 163] | 1000 to 10000 | 
42 | O=C(Nc1ccc(/C=C/c2ccc(NC(=O)[C@@H]3CCCN3C(=O)[C@@H]3CCCN3Cc3ccccc3)cc2)cc1)[C@@H]1CCCN1C(=O)[C@@H]1CCCN1Cc1ccccc1 [Example 164] | 1000 to 10000 | 
43 | O=C(Nc1ccc(/C=C/c2ccc(NC(=O)[C@@H]3CCCN3C(=O)c3cccc4c3Cc3ccccc3-4)cc2)cc1)[C@@H]1CCCN1C(=O)c1cccc2c1Cc1ccccc1-2 [Example 165] | 1000 to 10000 | 
44 | O=C(Nc1ccc(/C=C/c2ccc(NC(=O)[C@@H]3CCCN3C(=O)c3ccccc3-c3ccccc3)cc2)cc1)[C@@H]1CCCN1C(=O)c1ccccc1-c1ccccc1 [Example 166] | 1000 to 10000 | 
45 | O=C(Nc1ccc(/C=C/c2ccc(NC(=O)[C@@H]3CCCN3C(=O)Cc3ccccc3OCc3ccccc3)cc2)cc1)[C@@H]1CCCN1C(=O)Cc1ccccc1OCc1ccccc1 [Example 167] | 1000 to 10000 | 
46 | O=C(Nc1ccc(/C=C/c2ccc(NC(=O)[C@@H]3CCCN3C(=O)Cc3ccccc3Oc3ccccc3)cc2)cc1)[C@@H]1CCCN1C(=O)Cc1ccccc1Oc1ccccc1 [Example 168] | 1000 to 10000 | 
47 | O=C(Nc1ccc(/C=C/c2ccc(NC(=O)[C@@H]3CCCN3C(=O)c3ccccc3CCc3ccccc3)cc2)cc1)[C@@H]1CCCN1C(=O)c1ccccc1CCc1ccccc1 [Example 169] | 100 to 1000 | 
48 | O=C(Nc1ccc(/C=C/c2ccc(NC(=O)[C@@H]3CCCN3C(=O)c3ccccc3NCc3ccco3)cc2)cc1)[C@@H]1CCCN1C(=O)c1ccccc1NCc1ccco1 [Example 170] | 100 to 1000 | 
49 | O=C(Nc1ccc(/C=C/c2ccc(NC(=O)[C@@H]3CCCN3C(=O)c3ccccc3Cc3ccccc3)cc2)cc1)[C@@H]1CCCN1C(=O)c1ccccc1Cc1ccccc1 [Example 171] | 100 to 1000 | 
50 | O=C(Nc1ccc(/C=C/c2ccc(NC(=O)[C@@H]3CCCN3C(=O)c3ccccc3N3CCCCC3)cc2)cc1)[C@@H]1CCCN1C(=O)c1ccccc1N1CCCCC1 [Example 172] | 1000 to 10000 | 
51 | CCOc1ccccc1CC(=O)N1CCC[C@H]1C(=O)Nc1ccc(/C=C/c2ccc(NC(=O)[C@@H]3CCCN3C(=O)Cc3ccccc3OCC)cc2)cc1 [Example 173] | 1000 to 10000 | 
